Data: patent US20220402872A1, “PHOTOPOLYMERIZABLE ANTIBACTERIAL MONOMER” (UNIVERSITA' DEGLI STUDI DI TRIESTE, priority 2019, published 2022)

Tests used:
Assay type in all cases: cell-based
S. mutans (ATCC 25175) = assay: Determination of the minimum inhibitory concentration (MIC); conditions: Streptococcus mutans, ATCC25175; for MIC: against S. Mutans
Protocol: (§1) A colony of bacterium taken from agar plate is inoculated in Brain Hearth Infusion medium (BHI) and grown overnight at 37° C. The next day, the bacteria are diluted in fresh medium containing the phenol red indicator, up to a density of 10^6 bacteria/mL.
(§2) A stock solution of 2 mg/mL of compound is prepared in BHI medium containing phenol red.
(§3) In a 96-well plate, the compound stock solution is diluted serially (the concentration is halved at each step) to obtain the following final concentrations after addition of the bacteria suspension: 1 mg/mL; 0.5 mg/mL; 0.25 mg/mL; 0.125 mg/mL; 0.065 mg/mL; 0.032 mg/mL; 0.016 mg/mL; 0.008 mg/mL; 0.004 mg/mL; 0.002 mg/mL; 0.001 mg/mL. A compound-free medium is used as a growth control. A volume of bacterial suspension equal to 0.5*10^6 bacteria/mL is added to each well containing the compound and the control. The dish is incubated at 37° C. for 24 hours. Bacterial growth in each well is detected by the phenol red, which turns from red to yellow following acidification of the medium induced by bacterial metabolism. The lowest concentration of the compound causing no evident color change corresponds to the MIC.
In order to test the antibacterial properties of the compounds prepared in Examples 1-8, on colonies of S. mutans (ATCC 25175), a bacterium commonly found in the human oral cavity, a test was set up to determine the minimum inhibitory concentration (MIC) and the minimum bactericidal concentration (MBC) according to the “Determination of minimum inhibitory concentration (MIC)” methods and “Determination of minimum bactericidal concentration (MBC)” described above.

S. Mitis (ATCC 49456) [1] = assay: Determination of the minimum bactericidal concentration (MBC)
Protocol: (§4) A 20 mg/mL compound stock solution in BHI medium is prepared. In a 96-well plate, the compound solution is diluted serially (the concentration is halved at each step) to obtain the following final concentrations after addition of the bacteria suspension: 10 mg/mL; 5 mg/mL; 2.5 mg/mL; 1.25 mg/mL; 0.625 mg/mL; 0.31 mg/mL; 0.15 mg/mL; 0.08 mg/mL; 0.04 mg/mL; 0.02 mg/mL. Wells containing a mixture of penicillin and streptomycin antibiotics are used as a positive control. Compound-free medium is used as a growth control. A volume of bacterial suspension equal to 0.5*10^6 bacteria/mL is added to each well containing the compound and the controls. The dish is incubated at 37° C. for 24 hours. The lowest compound concentration at which no turbidity of the culture medium is evident is defined as MIC. For the calculation of MBC, aliquots equal to 50 μL are taken from the wells showing evident no turbidity of the medium and are plated on BHI agar plates for 48 hours. […] Bacterial suspensions taken from the positive control (growth medium only) and the negative control (growth medium with Ampicilin 100 μg/mL) are also seeded.
(§5) The compounds according to Examples 1, 3, 5, 6, and 7 were tested on bacterial strains different from S. mutans with the same methods described above, obtaining the MIC and MBC values reported in Table 2.

S. Aureus (ATCC 25923) [2] = assay: as above
Protocol: as §4, §5

E. coli (ATCC25922) [3] = assay: as above
Protocol: as §4, §5

S. Sanguis (ATCC 10556) [4] = assay: as above
Protocol: as §4, §5

[5] = tested on: primary cells from human dental pulp; assay: Determination of the cytotoxicity (MTS assay); conditions: for maximum (tested) non-cytotoxic concentration: primary dental pulp cells
Protocol: Tested cells: primary from dental pulp in complete high glucose DMEM medium+1 mg ascorbic acid, seeded in 96-well dishes;
Cell viability detection method: MTS assay from Promega (CellTiter 96® AQueous One Solution Cell Proliferation Assay) colorimetric metabolic assay that allows to evaluate variations in the number of cells being a dye reduced by cellular dehydrogenases. The greater the number of cells, the greater the amount of reduced compound;
Execution time: 24 hours and 72 hours from treatment;
Negative control: cells seeded in complete DMEM medium (CNT) are used;
Number of samples: for 24 hours, 6 samples of each type; for 72 hours 8 samples of each type.
Procedure: Cells (6000/well) are seeded on a 96-well dish to form a monolayer at approximately 40% confluence. After 24 hours the medium is replaced by a medium in which the compound has previously been solubilized, sterilized by 0.22 micron filtration. Growth medium alone is used as a negative control (CNT). At the following 24 and 72 hours the colorimetric test is performed. The absorbance values for each sample are averaged and the standard deviation calculated. The percent viability is calculated on the negative control.
The compounds according to Examples 1, 5, 6, and 7 were tested in order to evaluate their cytotoxicity on primary cells from human dental pulp according to the “Determination of cytotoxicity” method described above, obtaining the values reported respectively in the following Tables 3, 4, 5, and 6. Cells were extracted from healthy third molars of patients after informed consent (Authorization Single Regional Committee FVG, study ID 2433, 29 Aug. 2018). After extraction, the stem cell nature was ascertained by evaluating the expression of the positive markers CD 90, CD 73, CD 29 and the negative markers CD 14, CD 34 and CD 45.

S. Mitis (ATCC 49456) [6] = assay: Determination of the minimum inhibitory concentration (MIC); conditions: Streptococcus mitis, ATCC49456
Protocol: as §1, §2, §3, §5

S. Aureus (ATCC 25923) [7] = assay: as above; conditions: Staphylococcus aureus, ATCC25923
Protocol: as §1, §2, §3, §5

E. coli (ATCC25922) [8] = assay: as above; conditions: Escherichia coli
Protocol: as §1, §2, §3, §5

S. Sanguis (ATCC 10556) [9] = assay: as above
Protocol: as §1, §2, §3, §5

| SMILES | MIC (S. mutans (ATCC 25175)) [µg/mL] | MCB (S. Mitis (ATCC 49456) [1]) [mg/mL] | MCB (S. Aureus (ATCC 25923) [2]) [mg/mL] | MCB (E. coli (ATCC25922) [3]) [mg/mL] | MCB (S. Sanguis (ATCC 10556) [4]) [mg/mL] | % Viability 24 h ([5]; 10 μg/mL) [%] | % Viability 72 h ([5]; 10 μg/mL) [%] | % Viability 24 h ([5]; 50 μg/mL) [%] | % Viability 72 h ([5]; 50 μg/mL) [%] | % Viability 24 h ([5]; 100 μg/mL) [%] | % Viability 72 h ([5]; 100 μg/mL) [%] | % Viability 24 h ([5]; 500 μg/mL) [%] | % Viability 72 h ([5]; 500 μg/mL) [%] | MIC (S. Mitis (ATCC 49456) [6]) [µg/mL] | MIC (S. Aureus (ATCC 25923) [7]) [µg/mL] | MIC (E. coli (ATCC25922) [8]) [µg/mL] | MIC (S. Sanguis (ATCC 10556) [9]) [µg/mL] | % Viability 24 h ([5]; 1 μg/mL) [%] | % Viability 72 h ([5]; 1 μg/mL) [%] | maximum (tested) non-cytotoxic concentration [5] [µg/mL] | further results |
| --- | --- | --- | --- | --- | --- | --- | --- | --- | --- | --- | --- | --- | --- | --- | --- | --- | --- | --- | --- | --- | --- |
| C=C(C)C(=O)OCC[N+](C)(C)CCCCCCCCCCCC[N+](C)(C)CCOC(=O)C(=C)C.[Br-].[Br-] [Example 1] | 150 | 0.62 | 0.156 | 0.625 | 0.62 | 95.3 ± 12.5 | 110.0 ± 13.8 | 105.6 ± 11.2 | 111.0 ± 7.2 | 102.7 ± 7.2 | 122.4 ± 7.0 | 86.6 ± 5.5 | 115.3 ± 11.6 | 310 | 156 | 625 | 310 |  |  |  | decrease in cell viability [5]: did not show significant signs of decrease in cell viability; % Viability 24 h ([5]; 2 mg/mL): 80.6 ± 5.3%; % Viability 72 h ([5]; 2 mg/mL): 76.9 ± 8.4% |
| C=C(C)C(=O)OCC[N+](CC)(CC)CCCCCCCCCCCC[N+](CC)(CC)CCOC(=O)C(=C)C.[Br-].[Br-] [Example 5] | 10 to 20 | 0.039 | 0.039 | 0.156 | 0.039 | 119.2 ± 6.8 | 69.7 ± 17.0 | 83.4 ± 4.5 | 70.8 ± 17.8 | 95.9 ± 7.2 | 68.8 ± 17.5 | 2.5 ± 1.0 |  | 39 | 20 | 78 | 20 | 124.2 ± 6.3 | 72.6 ± 16.5 | 100 |  |
| C=C(C)C(=O)Nc1ccc([N+](C)(C)CCCCCCCCCCCC[N+](C)(C)c2ccc(NC(=O)C(C)=O)cc2)cc1.[Br-].[Br-] [Example 6] | 5 | 0.01 | 0.01 | 0.002 | 0.005 | 99.5 ± 13.5 | 97.7 ± 14 | 81.7 ± 8.2 | 71.5 ± 16.3 | 11.3 ± 2.1 | 2.0 ± 0.8 | 1.6 ± 0.9 | 2.6 ± 3.6 | 10 | 10 | 2 | 5 | 95.2 ± 13.2 | 103.2 ± 18.9 |  | MBC (S. mutans (ATCC 25175); against the analyzed bacteria strains): 5 to 10 µg/mL; % Viability 24 h ([5]; 1 mg/mL): 2.5 ± 0.9%; % Viability 72 h ([5]; 1 mg/mL): 3.5 ± 1.5% |
| C=C(C)C(=O)NCc1cc[n+](CCCCCCCCCCCC[n+]2ccc(CNC(=O)C(=C)C)cc2)cc1.[Br-].[Br-] [Example 7] | 2.5 | 0.02 | 0.005 | 0.0025 | 0.02 | 105.9 ± 11.9 | 100.6 ± 17.7 | 96.1 ± 10.5 | 86.3 ± 16.4 | 91.7 ± 12.0 | 71.8 ± 13.4 | 91.9 ± 16.8 | 26.5 ± 5.1 | 20 | 2.5 | 2.5 | 10 | 110.8 ± 15.9 | 97.3 ± 17.5 | 50 | % Viability 24 h ([5]; 1 mg/mL): 49.1 ± 8.1%; % Viability 72 h ([5]; 1 mg/mL): 5.0 ± 2.3% |
